Here are results for 1 molecule from US20260216103A1, “USE OF LONG-ACTING ß2AR AGONIST IN PREPARATION OF DRUGS FOR TREATING CANCERS” (HONG KONG SXMETEROL PHARMACEUTICAL CO., LIMITED, priority 2023, published 2026).

One test deals with B16F10 melanoma cells. Put plainly: tumorigenesis experiment with SX-pretreated melanoma cells. The class given is in vivo, mice. The settings on record: cells treated with 10 μM SX for 3 d. The method, then: (§1) Experimental method and steps: Cancer cells were treated with salmeterol xinafoate (SX) in vitro for 3-7 d, and a subcutaneous or orthotopic tumorigenesis experiment was conducted on mice.
B16F10 melanoma cells were treated with 10 μM salmeterol xinafoate (SX) for 3 d, and cells (1×10^6/mouse) were subcutaneously injected on both sides of the back of mice in a control group and an SX treated group (4 mice/group) to conduct a tumorigenesis experiment. Cancers formed subcutaneously at all 8 injection sites of 4 mice in the control group, and cancers formed subcutaneously also at all 8 injection sites of 4 mice in the SX treated group.
Experimental results in FIG. 10 show cancer growth curves and representative cancer photos.

The next test deals with brain cancer cells SF126. Put plainly: tumor sphere formation assay of brain cancer cells. The test is classed as cell-based. The settings on record: 1 μM, 3 μM, or 10 μM, 7 d; FIG. 25. An excerpt:
(§2) As a gold standard for detecting the self-renewal capability of cancer stem cells in vitro, a tumor sphere formation assay may detect individual cancer stem cell that continuously self-renew in a conditioned medium and form tumor spheres consisting of multiple cells. This in vitro experiment is often used to test the responsiveness of clinical patients to anticancer drugs, and guide in vivo medication of the clinical patients.

For test [1], the system named is colorectal cancer cells CT-26, SW620, HCT-15, DLD-1. Put plainly: tumor sphere formation assay of colorectal cancer cells. The test is classed as cell-based. Conditions: 1 μM, 3 μM, or 10 μM, 7 d; FIG. 12.
Description: as §2

A further test relates to LLC lung cancer cells. Put plainly: subcutaneous tumorigenesis experiment with SX-pretreated lung cancer cells (LLC). Conditions: cells treated with 10 μM SX for 7 d. The class given is in vivo, mice. On the procedure: as §1
In FIG. 6B, LLC lung cancer cells were treated with 10 μM salmeterol xinafoate (SX) for 7 d, and cells (1×10^5/mouse) were subcutaneously injected on both sides of the back of mice in a control group (8 mice) and an SX treated group (5 mice) to conduct a tumorigenesis experiment.
Experimental results in FIG. 6 show cancer growth curves and representative cancer photos.

In test [2] the test system is MDA-MB-231 breast cancer cells. Put plainly: orthotopic tumorigenesis experiment with SX-pretreated breast cancer cells. The class given is in vivo, mice. Conditions: cells treated with 10 μM SX for 7 d. On the procedure:
as §1
MDA-MB-231 breast cancer cells were treated with 10 μM salmeterol xinafoate (SX) for 7 d, and cells (1×10^4/mouse) were injected into the orthotopic mammary fat pads on both sides of the body of mice in a control group and an SX treated group (5 mice/group) to conduct a tumorigenesis experiment. 8 orthotopic cancers formed at 10 injection sites in the orthotopic mammary fat pads of 5 mice in the control group, and only 6 orthotopic cancers formed at 10 injection sites in the orthotopic mammary fat pads of 5 mice in the SX treated group.
Experimental results in FIG. 4 show cancer growth curves and representative cancer photos.

The test system of test [3] is lung cancer cells LLC, H1299, H460, H446. In words: tumor sphere formation assay of lung cancer cells. The class given is cell-based. The settings on record: 1 μM, 3 μM, or 10 μM, 7 d; FIG. 13.
Description: as §2

For test [4], the system named is KYSE-150 esophageal cancer cells. Put plainly: subcutaneous tumorigenesis experiment with SX-pretreated esophageal cancer cells. Conditions: cells treated with 10 μM SX for 3 d, 1×10^6/mouse; FIG. 8; P<0.0001 vs control. The test is classed as in vivo, mice. The method, then: as §1
KYSE-150 esophageal cancer cells were treated with 10 μM salmeterol xinafoate (SX) for 3 d, and cells (1×10^6/mouse) were subcutaneously injected on both sides of the back of mice in a control group and an SX treated group (3 mice/group) to conduct a tumorigenesis experiment.
Experimental results in FIG. 8 show cancer growth curves.

Take `OCc1cc(C(O)CNCCCCCCOCCCCc2ccccc2)ccc1O` (stereo not shown) [salmeterol xinafoate]: the “cancers formed subcutaneously at injection sites” value with B16F10 melanoma cells (1×10^6/mouse, 8 injection sites of 4 mice, control group all 8 sites) is on record as 8; in the test with LLC lung cancer cells (1×10^5/mouse, 10 injection sites of 5 mice, control group all 16 sites), “no cancers formed”. Further, the “cancer growth curves (initiation and progression)” value in the test with B16F10 melanoma cells (FIG. 10, P<0.0001 vs control) was “inhibits the initiation and progression of orthotopic melanoma”; in the test on LLC lung cancer cells (FIG. 6B, P<0.0001 vs control) it was “inhibits the initiation and progression of subcutaneous lung cancer”; in test [2] (FIG. 4, P<0.0001 vs control), “inhibits the initiation and progression of orthotopic breast cancer”; in test [4], “inhibits the initiation and progression of subcutaneous esophageal cancer”. In addition, the “number of tumor spheres (self-renewal capability of cancer stem cells)” value was “inhibited the self-renewal capability of the brain cancer stem cells in a concentration dependent manner” in the test on brain cancer cells SF126, “inhibited the self-renewal capability of the colorectal cancer stem cells in a concentration dependent manner” in test [1] and “inhibited the self-renewal capability of the lung cancer stem cells in a concentration dependent manner” in test [3]. Moreover, in test [2] (1×10^4/mouse into orthotopic mammary fat pads, 10 injection sites of 5 mice, control group 8), the “orthotopic cancers formed at injection sites” value came out at 6.
